Experimental data taken from article PMC9499467, “Phenanthroindolizidine Alkaloids Isolated from Tylophora ovata as Potent Inhibitors of Inflammation, Spheroid Growth, and Invasion of Triple-Negative Breast Cancer” (International Journal of Molecular Sciences, 2022).

How the values were obtained:
HIF-1α = assay: HIF inhibition, HIF-mediated UnaG reporter expression; type: cell-based; details: for decrease of HIF-1α-mediated UnaG expression: normoxia, MDA-MB-468-UnaG
Protocol: The HIF activity after treatment with compound (1s) or with the commercially available NFκB inhibitor BAY 11-7085 ((Hycultec, Beutelsbach, Germany; #HY-10257-10),) for 24 h was determined using the UnaG-reporter gene cell line MDA-MB-468-UnaG. On day 1, 1.5 × 10^4 MDA-MB-468-UnaG cells were seeded into a black 96 well plate (Greiner; #655090). […] HIF-mediated UnaG expression was recorded in z-stacked images using the CQ1 high-content imaging system (Yokogawa, Wehr, Germany; 100× g magnification). Beforehand, the UnaG fluorescence intensity was determined in UnaG-expressing cell clones (Figure S5).
Figure 7 Compound (1s) decreases HIF-dependent gene transcription. MDA-MB-468-UnaG cells were pre-treated for 1 h without (CTRL) or with compound (1s) or BAY 11-7085 (BAY) before being grown (a,b) in the absence (normoxia; CTRL) or (c,d) presence of 100 µM CoCl2 (hypoxia) for another 24 h. (a,c) Representative fluorescence images. Scale bar: 200 µm (b,d) Total fluorescence intensity of HIF-mediated UnaG was normalized to the CTRL group. Statistical difference was calculated with one-way ANOVA (b) vs. CTRL (normoxia) (ns = not significant, * p < 0.05). (d) vs. CTRL (hypoxia) (# p < 0.05); vs. CoCl2 (* p < 0.05, ** p < 0.01, *** p < 0.001). (b,d) Columns represent the mean ± SEM (n = 3).

[1] = tested on: MDA-MB-231 monoculture spheroids; assay: 3D invasion of monoculture spheroids into matrigel; type: cell-based, human; details: 10 nM, 48 h
Protocol: To study TNBC invasion in an extracellular matrix (ECM)-like environment, mono-culture spheroids of MDA-MB-231 were generated in matrigel®, as described. In brief, 3000 MDA-MB-231 cells were seeded in 0.25% (v/v) matrigel® (Corning, Taufkirchen, Germany; #356432) into a low-attachment 96 well plate (Greiner; #650970 or Cenibra, Bramsche, Germany; #ULA-96U). For cell aggregation, cells were centrifugated for 10 min at 136× g at 4 °C before being grown for 72 h. Invasion was allowed for another […] before analyzing at least three spheroids per treatment group. For that purpose, brightfield images of the spheroids were acquired at 50× g magnification using the microscope Axio Vert.A1 (Zeiss). The spheroid area before treatment and the spheroid area including the invaded area after compound treatment were quantified in brightfield images using Fiji (open-source software; version 1.52i).
Figure 6 Compound (1s) blocks TNBC monoculture spheroid invasion in a matrigel®-based extracellular matrix (ECM). […] (a) Invaded area was measured using Fiji (open-source software; version 1.52i) with manually picked positions (white squares) to determine the outline (yellow line) of the spheroid area within 0 h and after 48-h treatment. […] (c) Invaded area is calculated by normalizing the spheroid area after 48 h treatment to the spheroid size at 0 h. […]

MDA-MB-468-UnaG = assay: Cell cycle studies (PI-DNA flow cytometry) in MDA-MB-468-UnaG; type: cell-based; details: normoxia
Protocol: To investigate cell cycle progression in the presence of compound (1s) or paclitaxel (Santa Cruz Biotechnology; #sc-201439), we quantified the DNA content in the cell. On day 1, the cells were seeded in 1 mL into a 24 well plate (Greiner; #662160). On day 2, MDA-MB-468-UnaG were pre-treated either without (normoxia) or with 100 µM CoCl2 (hypoxia) (Sigma-Aldrich; #C8661) for 24 h before compounds were applied. On day 2 for MDA-MB-231 or on day 3 for MDA-MB-468-UnaG, paclitaxel was applied at the concentrations 15 nM, 37 nM, and 100 nM, and compound (1s) was applied at concentrations ranging from 2 nM to 1000 nM. Post-treatment cells were washed in 1× PBS (Thermo Fisher Scientific; #14190); fixed in 70% (v/v) ethanol overnight at 4 °C; washed again in 1× PBS; and, finally, DNA was stained for 15 min at 37 °C in the presence of 10 µg/mL propium iodide (PI; Sigma-Aldrich; #4864) and 100 µg/mL RNase A (Thermo Fisher Scientific; #EN0531) dissolved in 0.1% triton™ X-100 (Sigma-Aldrich; #X100), dissolved in PBS. The fluorescence signal resulting from PI-DNA complex formation was recorded using the flow cytometer CytoFlex (Beckmann Coulter, Krefeld, Germany). The cell cycle phase population was determined based on the DNA content in a set of chromosomes (n) in a cell using the integrated software CytExpert (Beckmann Coulter): sub-G0/G1 (<2n), G0/G1 (2n), S (>2n, <4n), G2/M (4n) or hyperploid cells (>4n) (see Figure S10).

Compound: COc1ccc2c3c(c4cc(OC)c(OC)cc4c2c1)CN1CCCC1C3O (stereo not shown) [Compound (1s), O-methyltylophorinidine]
- reduction of HIF-1α-activity (HIF-1α; CoCl2-simulated hypoxia (100 µM), 20 nM, 24 h): 14 ± 4%
- decrease of HIF-1α-mediated UnaG expression (HIF-1α; 10 nM, 24 h): 11 ± 3%
- decrease of HIF-1α-mediated UnaG expression (HIF-1α; 20 nM, 24 h): 13 ± 4%
- CoCl2-induced increase in HIF-1α-activity (HIF-1α; pre-treatment before CoCl2-simulated hypoxia, 6 µM BAY 11-7085, 2, 5, 10, 20 nM (1s)): blocked
- blockade of invasion (invaded area) [1]: approximately 65%
- sub-G0/G1 population (MDA-MB-468-UnaG; 48 h): increase in the sub-G0/G1 population
- cell cycle phase population (MDA-MB-468-UnaG; (1s) 20 nM 72 h, paclitaxel within 24 h): significant increase in G2/M population
